Laboratory results published in patent publication US11564923B2, “Compounds and pharmaceutical compositions thereof for the treatment of inflammatory disorders” (Galapagos NV, priority 2017, dated 2023).
pIC50: −log10 of the molar value.

Molecular target: T1, Recombinant human TYK2 catalytic domain (amino acids 871-1187) (Homo sapiens, UniProt P29597)
T1 construct: catalytic domain (amino acids 871-1187)
T1 sequence (P29597 871-1187): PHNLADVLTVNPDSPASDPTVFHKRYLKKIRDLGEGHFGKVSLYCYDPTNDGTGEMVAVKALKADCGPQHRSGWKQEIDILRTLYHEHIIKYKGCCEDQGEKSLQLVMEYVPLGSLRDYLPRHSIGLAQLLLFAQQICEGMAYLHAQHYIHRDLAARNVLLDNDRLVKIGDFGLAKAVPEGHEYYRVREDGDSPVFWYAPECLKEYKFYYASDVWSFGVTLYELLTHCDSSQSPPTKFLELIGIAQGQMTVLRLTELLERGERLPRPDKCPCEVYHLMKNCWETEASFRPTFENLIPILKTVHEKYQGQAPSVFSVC
Test: TYK2 radioactive assay polyGT substrate; further: 0.1 µM ATP
Type: biochemical
Description: After 120 min at 30° C., reactions were stopped by adding 25 μL/well of 150 mM phosphoric acid. […] Plates were washed 6 times with 300 μL per well of a 75 mM phosphoric acid solution and the bottom of the plates is sealed. […] Kinase activity is calculated by subtracting counts per min (cpm) obtained in the presence of a positive control inhibitor (10 μM staurosporine) from cpm obtained in the presence of vehicle. The ability of a test compound to inhibit this activity (or percentage inhibition) is determined as: […]
cpm test compound=cpm determined for sample with test compound present cpm control=cpm determined for sample with positive control inhibitor cpm vehicle=cpm determined in the presence of vehicle
Dose dilution series were prepared for the compounds enabling the testing of dose-response effects in the TYK2 assay and the calculation of the IC50 for each compound. Each compound is routinely tested at concentration of 20 μM followed by a 1/5 serial dilution, 10 points in a final concentration of 1% DMSO.

Structure (SMILES)	pIC50
CO[C@@H]1CN(C(=O)c2ccc(Nc3cc(Oc4cnc(C#N)cc4C)nc4c3ncn4C)nc2)C[C@H]1F (racemic) [Compound 142, 4-methyl-5-[3-methyl-7-[[5-[rac-(3R,4R)-3-fluoro-4-methoxypyrrolidine-1-carbonyl]pyridin-2-yl]amino]imidazo[4,5-b]pyridin-5-yl]oxypyridine-2-carbonitrile]	8.34
CCNC(=O)Cc1ccc(Nc2cc(Oc3cnc(C#N)cc3C)nc3c2ncn3C)cc1 [Compound 27, 2-{4-[5-(6-Cyano-4-methyl-pyridin-3-yloxy)-3-methyl-3H-imidazo[4,5-b]pyridin-7-ylamino]-phenyl}-N-ethyl-acetamide]	7.41
Cc1cc(C#N)ncc1Oc1cc(Nc2ccc(C(=O)N3CCOCC3)nc2)c2ncn(C)c2n1 [Compound 28, 4-Methyl-5-{3-methyl-7-[6-(morpholine-4-carbonyl)-pyridin-3-ylamino]-3H-imidazo[4,5-b]pyridin-5-yloxy}-pyridine-2-carbonitrile]	7.57
CNC(=O)c1ccc(Nc2cc(Oc3cnc(C#N)cc3C)nc3c2ncn3C)cn1 [Compound 29, 5-[5-(6-Cyano-4-methyl-pyridin-3-yloxy)-3-methyl-3H-imidazo[4,5-b]pyridin-7-ylamino]-pyridine-2-carboxylic acid methylamide]	7.01
Cc1cc(C#N)ncc1Oc1cc(Nc2ccc(C(=O)NCCCO)cn2)c2ncn(C)c2n1 [Compound 101, 6-[[5-[(6-cyano-4-methyl-3-pyridyl)oxy]-3-methyl-imidazo[4,5-b]pyridin-7-yl]amino]-N-(3-hydroxypropyl)pyridine-3-carboxamide]	8.03
Cc1cc(C#N)ncc1Oc1cc(Nc2ccc(N3CCOCC3)cc2)c2ncn(C)c2n1 [Compound 109, 4-methyl-5-[3-methyl-7-(4-morpholinoanilino)imidazo[4,5-b]pyridin-5-yl]oxy-pyridine-2-carbonitrile]	7.61
Cc1cc(C#N)ncc1Oc1cc(Nc2ccc(N3CCN(C)CC3)cc2)c2ncn(C)c2n1 [Compound 110, 4-methyl-5-[3-methyl-7-[4-(4-methylpiperazin-1-yl)anilino]imidazo[4,5-b]pyridin-5-yl]oxy-pyridine-2-carbonitrile]	7.57
Cc1cc(C#N)ncc1Oc1cc(Nc2ccc(C(=O)N3CC4(CN(C)C4)C3)cn2)c2ncn(C)c2n1 [Compound 123, 4-methyl-5-[3-methyl-7-[[5-(6-methyl-2,6-diazaspiro[3.3]heptane-2-carbonyl)-2-pyridyl]amino]imidazo[4,5-b]pyridin-5-yl]oxy-pyridine-2-carbonitrile]	8.03
Cc1cc(C#N)ncc1Oc1cc(Nc2ccc(C(=O)N3CCC(N(C)C)CC3)cn2)c2ncn(C)c2n1 [Compound 126, 5-[7-[[5-[4-(dimethyalmino)piperidine-1-carbonyl]pyridin-2-yl]amino]-3-methylimidazo[4,5-b]pyridin-5-yl]oxy-4-methylpyridine-2-carbonitrile]	8.26
Cc1cc(C#N)ncc1Oc1cc(Nc2ccc(C(=O)N3CC[C@@H](O)C3)cn2)c2ncn(C)c2n1 [Compound 127, 5-[7-[[5-[(3R)-3-hydroxypyrrolidine-1-carbonyl]pyridin-2-yl]amino]-3-methylimidazo[4,5-b]pyridin-5-yl]oxy-4-methylpyridine-2-carbonitrile]	8.47
Cc1cc(C#N)ncc1Oc1cc(Nc2ccc(C(=O)N3CCN(C(=O)OC(C)(C)C)CC3)cn2)c2ncn(C)c2n1 [Compound 128, 4-{6-[5-(6-Cyano-4-methyl-pyridin-3-yloxy)-3-methyl-3H-imidazo[4,5-b]pyridin-7-ylamino]-pyridine-3-carbonyl}-piperazine-1-carboxylic acid tert-butyl ester]	8.23
COCCO[C@@H]1CCN(C(=O)c2ccc(Nc3cc(Oc4cnc(C#N)cc4C)nc4c3ncn4C)nc2)C1 [Compound 129, 5-[7-[[5-[(3R)-3-(2-methoxyethoxy)pyrrolidine-1-carbonyl]pyridin-2-yl]amino]-3-methylimidazo[4,5-b]pyridin-5-yl]oxy-4-methylpyridine-2-carbonitrile]	8.23
Cc1cc(C#N)ncc1Oc1cc(Nc2ccc(C(=O)N3CCC(N(C)C(=O)OC(C)(C)C)C3)cn2)c2ncn(C)c2n1 (centres unmarked) [Compound 130, (1-{6-[5-(6-Cyano-4-methyl-pyridin-3-yloxy)-3-methyl-3H-imidazo[4,5-b]pyridin-7-ylamino]-pyridine-3-carbonyl}-pyrrolidin-3-yl)-methyl-carbamic acid tert-butyl ester]	8.33
Cc1cc(C#N)ncc1Oc1cc(Nc2ccc(C(=O)N3CC(CN(C)C)C3)cn2)c2ncn(C)c2n1 [Compound 132, 5-[7-[[5-[3-[(dimethylamino)methyl]azetidine-1-carbonyl]pyridin-2-yl]amino]-3-methylimidazo[4,5-b]pyridin-5-yl]oxy-4-methylpyridine-2-carbonitrile]	8.05

Stronger by pIC50, values ahead:

pIC50	Structure (SMILES)
8.54	Cc1cc(C#N)ncc1Oc1cc(Nc2ccc(C(=O)N3C[C@@H](O)[C@H](F)C3)cn2)c2ncn(C)c2n1 (racemic) [Compound 140, 4-methyl-5-[3-methyl-7-[[5-[rac-(3R,4R)-3-fluroo-4-hydroxypyrrolidine-1-carbonyl]pyridin-2-yl]amino]imidazo[4,5-b]pyridin-5-yl]oxypyridine-2-carbonitrile]
8.56	Cc1cc(C#N)ncc1Oc1cc(Nc2ccc(N3CCN(CC(F)(F)F)CC3)nn2)c2ncn(C)c2n1 [Compound 42, 4-Methyl-5-(3-methyl-7-{6-[4-(2,2,2-trifluoro-ethyl)-piperazin-1-yl]-pyridazin-3-ylamino}-3H-imidazo[4,5-b]pyridin-5-yloxy)-pyridine-2-carbonitrile]
8.66	Cc1cc(C#N)ncc1Oc1cc(Nc2ccc(N3CCC(C#N)CC3)nn2)c2ncn(C)c2n1 [Compound 45, 5-{7-[6-(4-Cyano-piperidin-1-yl)-pyridazin-3-ylamino]-3-methyl-3H-imidazo[4,5-b]pyridin-5-yloxy}-4-methyl-pyridine-2-carbonitrile]
8.53	Cc1cc(C#N)ncc1Oc1cc(Nc2ccc(C(=O)N(C)C)c(C)n2)c2ncn(C)c2n1 [Compound 77, 6-[[5-[(6-cyano-4-methyl-3-pyridyl)oxy]-3-methyl-imidazo[4,5-b]pyridin-7-yl]amino]-N,N,2-trimethyl-pyridine-3-carboxamide]
8.80	Cc1cc(C#N)ncc1Oc1cc(Nc2ccc(C(=O)N3CC4(CCO4)C3)cn2)c2ncn(C)c2n1 [Compound 120, 4-methyl-5-[3-methyl-7-[[5-(3-oxa-6-azaspiro[3.3]heptane-6-carbonyl)-2-pyridyl]amino]imidazo[4,5-b]pyridin-5-yl]oxy-pyridine-2-carbonitrile]
8.72	COC1(C)CN(C(=O)c2ccc(Nc3cc(Oc4cnc(C#N)cc4C)nc4c3ncn4C)nc2)C1 [Compound 121, 5-[7-[[5-(3-methoxy-3-methyl-azetidine-1-carbonyl)-2-pyridyl]amino]-3-methyl-imidazo[4,5-b]pyridin-5-yl]oxy-4-methyl-pyridine-2-carbonitrile]
8.52	Cc1cc(C#N)ncc1Oc1cc(Nc2ccc(C(=O)N3CC(C(=O)OC(C)(C)C)C3)cn2)c2ncn(C)c2n1 [Compound 122, tert-butyl 1-[6-[[5-[(6-cyano-4-methyl-3-pyridyl)oxy]-3-methyl-imidazo[4,5-b]pyridin-7-yl]amino]pyridine-3-carbonyl]azetidine-3-carboxylate]
8.60	Cc1cc(C#N)ncc1Oc1cc(Nc2ccc(C(=O)N3CCC(O)CC3)cn2)c2ncn(C)c2n1 [Compound 124, 5-[7-[[5-(4-hydroxypiperidine-1-carbonyl)pyridin-2-yl]amino]-3-methylimidazo[4,5-b]pyridin-5-yl]oxy-4-methylpyridine-2-carbonitrile]
8.65	COC1CCN(C(=O)c2ccc(Nc3cc(Oc4cnc(C#N)cc4C)nc4c3ncn4C)nc2)CC1 [Compound 125, 5-[7-[[5-(4-methoxypiperidine-1-carbonyl)pyridin-2-yl]amino]-3-methylimidazo[4,5-b]pyridin-5-yl]oxy-4-methylpyridine-2-carbonitrile]
8.54	Cc1cc(C#N)ncc1Oc1cc(Nc2ccc(C(=O)N3CCC4(COC4)C3)cn2)c2ncn(C)c2n1 [Compound 131, 4-methyl-5-[3-methyl-7-[[5-(2-oxa-7-azaspiro[3.4]octane-7-carbonyl)pyridin-2-yl]amino]imidazo[4,5-b]pyridin-5-yl]oxypyridine-2-carbonitrile]
8.68	Cc1cc(C#N)ncc1Oc1cc(Nc2ccc(C(=O)N3CC4(COC4)C3)cn2)c2ncn(C)c2n1 [Compound 134, 4-methyl-5-[3-methyl-7-[[5-(2-oxa-6-azaspiro[3.3]heptane-6-carbonyl)pyridin-2-yl]amino]imidazo[4,5-b]pyridin-5-yl]oxypyridine-2-carbonitrile]
8.68	Cc1cc(C#N)ncc1Oc1cc(Nc2ccc(C(=O)N3CC(CO)(CO)C3)cn2)c2ncn(C)c2n1 [Compound 135, 5-[7-[[5-[3,3-bis(hydroxymethyl)azetidine-1-carbonyl]pyridin-2-yl]amino]-3-methylimidazo[4,5-b]pyridin-5-yl]oxy-4-methylpyridine-2-carbonitrile]
